Reference: US10435399B2, “HDAC6 inhibitory heterocyclic compound” (TAKEDA PHARMACEUTICAL COMPANY LIMITED, priority 2017, dated 2019)

biological target: T1, HDAC6 enzyme (Homo sapiens, UniProt Q9UBN7); experiment: HDAC6 enzyme inhibitory activity (HDAC-Glo I/II Assay kit); assay type: biochemical; settings: 10 μM; wells without enzyme = 100% inhibition
T1 construct: transducing full length HDAC6 gene into Sf-9 insect cells; GST; purchased SignalChem; host or cells: Sf-9 insect cells
T1 sequence (Q9UBN7 1-1215): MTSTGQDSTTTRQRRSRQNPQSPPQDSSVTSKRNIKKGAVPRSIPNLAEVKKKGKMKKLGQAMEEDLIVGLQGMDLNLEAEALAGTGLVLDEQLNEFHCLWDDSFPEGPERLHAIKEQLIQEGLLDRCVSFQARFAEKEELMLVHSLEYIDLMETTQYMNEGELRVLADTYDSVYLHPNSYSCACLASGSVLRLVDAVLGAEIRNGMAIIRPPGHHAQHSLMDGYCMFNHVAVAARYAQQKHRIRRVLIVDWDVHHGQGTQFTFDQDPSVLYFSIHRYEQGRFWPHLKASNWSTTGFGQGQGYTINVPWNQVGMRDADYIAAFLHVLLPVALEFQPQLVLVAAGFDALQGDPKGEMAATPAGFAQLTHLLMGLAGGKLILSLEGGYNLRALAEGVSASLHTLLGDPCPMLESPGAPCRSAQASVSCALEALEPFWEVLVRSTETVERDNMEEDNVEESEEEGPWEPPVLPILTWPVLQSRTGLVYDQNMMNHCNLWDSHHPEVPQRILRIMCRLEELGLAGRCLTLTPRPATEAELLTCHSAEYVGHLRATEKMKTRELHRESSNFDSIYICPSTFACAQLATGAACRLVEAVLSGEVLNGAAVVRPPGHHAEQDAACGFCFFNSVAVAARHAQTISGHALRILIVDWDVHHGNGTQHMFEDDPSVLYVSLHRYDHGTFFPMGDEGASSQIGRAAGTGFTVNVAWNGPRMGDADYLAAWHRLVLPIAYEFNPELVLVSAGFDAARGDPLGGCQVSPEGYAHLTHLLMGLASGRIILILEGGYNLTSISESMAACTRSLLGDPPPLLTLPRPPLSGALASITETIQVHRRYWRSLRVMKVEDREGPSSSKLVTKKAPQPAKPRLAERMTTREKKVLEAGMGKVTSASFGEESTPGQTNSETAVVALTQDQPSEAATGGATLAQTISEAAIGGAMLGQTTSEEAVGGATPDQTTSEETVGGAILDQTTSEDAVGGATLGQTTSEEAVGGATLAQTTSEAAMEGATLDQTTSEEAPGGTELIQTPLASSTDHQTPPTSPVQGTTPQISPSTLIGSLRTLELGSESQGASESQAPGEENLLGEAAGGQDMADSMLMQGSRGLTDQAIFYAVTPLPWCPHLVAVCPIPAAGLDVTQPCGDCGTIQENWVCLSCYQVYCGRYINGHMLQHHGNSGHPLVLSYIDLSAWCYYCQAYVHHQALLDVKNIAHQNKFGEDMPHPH
In short: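 Sf-9-derived GST-purified full-length HDAC6 + cpd, 60 min RT, 24 mM Tris pH 7.5/0.6 mM glutathione/0.01% Tween-20; add HDAC-Glo substrate-developer, 20 min RT; luminescence. No-enzyme = 100% inhibition.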

SMILES | HDAC6 inhibitory rate (%) (10 μM)
O=C(N[C@@H]1CCCC[C@H]1N1Cc2ccc(-c3nnc(C(F)F)o3)cc2C1=O)C1CC12CCC2 (stereo partly drawn) [Example 119, N-((1R,2R)-2-(6-(5-(difluoromethyl)-1,3,4-oxadiazol-2-yl)-1-oxo-1,3-dihydro-2H-isoindol-2-yl)cyclohexyl)spiro[2.3]hexane-1-carboxamide (optical isomer)] | 100
O=C(N[C@@H]1CCCC[C@H]1N1Cc2ccc(-c3nnc(C(F)F)o3)cc2C1=O)C1CC1(F)F (stereo partly drawn) [Example 121, N-((1R,2R)-2-(6-(5-(difluoromethyl)-1,3,4-oxadiazol-2-yl)-1-oxo-1,3-dihydro-2H-isoindol-2-yl)cyclohexyl)-2,2-difluorocyclopropanecarboxamide (optical isomer)] | 100

same assay, conditions: 10 μM; wells without enzyme = 100% inhibition; read-out: HDAC6 inhibitory rate (%) (10 μM)

SMILES | inhibition at 10 µM [%]
O=C(N[C@@H]1CCCC[C@H]1N1Cc2ccc(-c3nnc(C(F)F)o3)cc2C1=O)[C@H]1CCOC1 [Example 114, (3S)-N-((1R,2R)-2-(6-(5-(difluoromethyl)-1,3,4-oxadiazol-2-yl)-1-oxo-1,3-dihydro-2H-isoindol-2-yl)cyclohexyl)tetrahydrofuran-3-carboxamide] | 100
C[C@H](C1CC1)N1Cc2ccc(-c3nnc(C(F)F)o3)cc2C1=O [Example 115, 2-((1R)-1-cyclopropylethyl)-6-(5-(difluoromethyl)-1,3,4-oxadiazol-2-yl)isoindolin-1-one] | 96
C[C@@H](C1CC1)N1Cc2ccc(-c3nnc(C(F)F)o3)cc2C1=O [Example 116, 2-((1S)-1-cyclopropylethyl)-6-(5-(difluoromethyl)-1,3,4-oxadiazol-2-yl)isoindolin-1-one] | 98
CCCCO[C@H]1CC[C@H](N2Cc3ccc(-c4nnc(C(F)F)o4)cc3C2=O)CC1 [Example 117, 2-(trans-4-butoxycyclohexyl)-6-(5-(difluoromethyl)-1,3,4-oxadiazol-2-yl)isoindolin-1-one] | 96
O=C1c2cc(-c3nnc(C(F)F)o3)ccc2CN1C1CCOCC1 [Example 122, 6-(5-(difluoromethyl)-1,3,4-oxadiazol-2-yl)-2-(tetrahydro-2H-pyran-4-yl)isoindolin-1-one] | 95
O=C1c2cc(-c3nnc(C(F)F)o3)ccc2CN1[C@@H]1CCCC[C@H]1n1ccnn1 [Example 123] | 101
O=C1CCCN1[C@@H]1CCCC[C@H]1N1Cc2c(F)cc(-c3nnc(C(F)F)o3)cc2C1=O [Example 124, 6-(5-(difluoromethyl)-1,3,4-oxadiazol-2-yl)-4-fluoro-2-((1R,2R)-2-(2-oxopyrrolidin-1-yl)cyclohexyl)isoindolin-1-one] | 99
CC(C)(C)OC(=O)N1CC[C@@H](N2Cc3ccc(-c4nnc(C(F)F)o4)cc3C2=O)[C@@H](c2ccccc2)C1 [Example 125, tert-butyl (3S,4R)-4-(6-(5-(difluoromethyl)-1,3,4-oxadiazol-2-yl)-1-oxo-1,3-dihydro-2H-isoindol-2-yl)-3-phenylpiperidine-1-carboxylate] | 98
O=C1c2cc(-c3nnc(C(F)F)o3)ccc2CN1[C@@H]1CCNC[C@@H]1c1ccccc1 [Example 126, 6-(5-(difluoromethyl)-1,3,4-oxadiazol-2-yl)-2-((3S,4R)-3-phenylpiperidin-4-yl)isoindolin-1-one] | 100
CC(=O)N1CC[C@@H](N2Cc3ccc(-c4nnc(C(F)F)o4)cc3C2=O)[C@@H](c2ccccc2)C1 [Example 127, 2-((3S,4R)-1-acetyl-3-phenylpiperidin-4-yl)-6-(5-(difluoromethyl)-1,3,4-oxadiazol-2-yl)isoindolin-1-one] | 100
COC(=O)N1CC[C@@H](N2Cc3ccc(-c4nnc(C(F)F)o4)cc3C2=O)[C@@H](c2ccccc2)C1 [Example 128, methyl (3S,4R)-4-(6-(5-(difluoromethyl)-1,3,4-oxadiazol-2-yl)-1-oxo-1,3-dihydro-2H-isoindol-2-yl)-3-phenylpiperidine-1-carboxylate] | 100
O=C1c2cc(-c3nnc(C(F)F)o3)ccc2CN1c1ccccc1-c1ccccc1 [Example 129, 2-(biphenyl-2-yl)-6-(5-(difluoromethyl)-1,3,4-oxadiazol-2-yl)isoindolin-1-one] | 100
CCOC(=O)N1CCC(N2Cc3ccc(-c4nnc(C(F)F)o4)cc3C2=O)CC1 [Example 130, ethyl 4-(6-(5-(difluoromethyl)-1,3,4-oxadiazol-2-yl)-1-oxo-1,3-dihydro-2H-isoindol-2-yl)piperidine-1-carboxylate] | 93
O=C(N[C@@H]1CCCC[C@H]1N1Cc2ccc(-c3nnc(C(F)F)o3)cc2C1=O)OCC(F)F [Example 131, 2,2-difluoroethyl ((1R,2R)-2-(6-(5-(difluoromethyl)-1,3,4-oxadiazol-2-yl)-1-oxo-1,3-dihydro-2H-isoindol-2-yl)cyclohexyl)carbamate] | 99
O=C(N[C@@H]1CCCC[C@H]1N1Cc2ccc(-c3nnc(C(F)F)o3)cc2C1=O)OCCC(F)(F)F [Example 132, 3,3,3-trifluoropropyl ((1R,2R)-2-(6-(5-(difluoromethyl)-1,3,4-oxadiazol-2-yl)-1-oxo-1,3-dihydro-2H-isoindol-2-yl)cyclohexyl)carbamate] | 94
O=C1c2cc(-c3nnc(C(F)F)o3)ccc2CN1c1ccccc1-c1ccc(C(F)(F)F)cc1 [Example 133, 6-(5-(difluoromethyl)-1,3,4-oxadiazol-2-yl)-2-(4′-(trifluoromethyl)biphenyl-2-yl)isoindolin-1-one] | 93
COc1ccc(-c2ccccc2N2Cc3ccc(-c4nnc(C(F)F)o4)cc3C2=O)cc1 [Example 134, 6-(5-(difluoromethyl)-1,3,4-oxadiazol-2-yl)-2-(4′-methoxybiphenyl-2-yl)isoindolin-1-one] | 101
O=C1c2cc(-c3nnc(C(F)F)o3)cc(F)c2CN1Cc1ccccc1 [Example 136, 2-benzyl-6-(5-(difluoromethyl)-1,3,4-oxadiazol-2-yl)-4-fluoroisoindolin-1-one] | 99
O=C1CCCCN1[C@@H]1COCC[C@H]1N1Cc2c(F)cc(-c3nnc(C(F)F)o3)cc2C1=O [Example 137, 6-(5-(difluoromethyl)-1,3,4-oxadiazol-2-yl)-4-fluoro-2-((3S,4R)-3-(2-oxopiperidin-1-yl)tetrahydro-2H-pyran-4-yl)isoindolin-1-one] | 98
O=C1OCCN1[C@@H]1CCCC[C@H]1N1Cc2c(F)cc(-c3nnc(C(F)F)o3)cc2C1=O [Example 138, 6-(5-(difluoromethyl)-1,3,4-oxadiazol-2-yl)-4-fluoro-2-((1R,2R)-2-(2-oxo-1,3-oxazolidin-3-yl)cyclohexyl)isoindolin-1-one] | 98
O=C1c2cc(-c3nnc(C(F)F)o3)cnc2CN1Cc1ccccc1 [Example 139, 6-benzyl-3-(5-(difluoromethyl)-1,3,4-oxadiazol-2-yl)-6,7-dihydro-5H-pyrrolo[3,4-b]pyridin-5-one] | 100
C[C@H](c1ccc(F)cc1)N1Cc2ncc(-c3nnc(C(F)F)o3)cc2C1=O [Example 140, 3-(5-(difluoromethyl)-1,3,4-oxadiazol-2-yl)-6-((1R)-1-(4-fluorophenyl)ethyl)-6,7-dihydro-5H-pyrrolo[3,4-b]pyridin-5-one] | 100
